Experiments:
[1] = system: herpes simplex virus type 1 (HSV-1) strain F; test: Virus inactivating reaction with HSV-1 in sample solution, remaining infectious virus by plaque assay; assay type: cell-based
[2] = system: influenza virus A/Aichi (H3N2); test: Virus inactivating reaction with influenza virus A in sample solution, remaining infectious virus by plaque assay; assay type: cell-based; details: for Relative Inactivating Efficiency: relative to 0.01% CAE alone
[3] = 0.1 mM catechin compound alone, pH 4.0, 30° C. 5 min
[4] = 0.1 mM catechin compound, 0 M arginine, pH 4.0, relative to 0.1 mM of the same compound alone
[5] = 0.1 mM catechin compound, 0.2 M arginine, pH 4.0, relative to 0.1 mM of the same compound alone
[6] = 0.5 mM catechin compound, 0 M arginine, pH 4.0, relative to 0.1 mM of the same compound alone

O=C(O)/C=C/c1ccc(O)c(O)c1 [Caffeic acid, caffeic acid]
viral titer after inactivation, % of that before inactivation ([1]; 0.1 mM caffeic acid alone, pH 4.0 (Comparative Example 2)): 0.13%
viral titer after inactivation, % of the viral amount before inactivation ([1]; 0.1 mM caffeic acid alone, pH 4.0, 30° C. 5 min (Example 1)): 0.3%
Relative Inactivating Efficiency ([1]; 0.1 mM caffeic acid, 0 M NaCl, pH 4.0, 20 mM sodium acetate, relative to 0.1 mM caffeic acid alone): 1 times
Relative Inactivating Efficiency ([1]; 0.1 mM caffeic acid, 0 M arginine, pH 4.0, 30° C. 5 min, relative to 0.1 mM caffeic acid alone): 1 times
Relative Inactivating Efficiency ([1]; 0.1 mM caffeic acid, 0.2 M NaCl, pH 4.0, relative to 0.1 mM caffeic acid alone): 0.010 times
Relative Inactivating Efficiency ([1]; 0.1 mM caffeic acid, 0.2 M NaCl, pH 4.0, relative to 0.1 mM caffeic acid alone, listed as caffeic acid): 0.01 times
Relative Inactivating Efficiency ([1]; 0.1 mM caffeic acid, 0.2 M arginine, pH 4.0, 30° C. 5 min, relative to 0.1 mM caffeic acid alone): 1.5 times
Relative Inactivating Efficiency ([1]; 0.5 mM caffeic acid, 0 M arginine, pH 4.0, 30° C. 5 min, relative to 0.1 mM caffeic acid alone): 1.3 times
Relative Inactivating Efficiency ([1]; 0.5 mM caffeic acid, 0.2 M NaCl, pH 4.0, relative to 0.1 mM caffeic acid alone): 0.009 times
Relative Inactivating Efficiency ([1]; 0.5 mM caffeic acid, 0.2 M arginine, pH 4.0, 30° C. 5 min, relative to 0.1 mM caffeic acid alone): 3.3 times
Relative Inactivating Efficiency ([1]; 1 mM caffeic acid, 0 M arginine, pH 4.0, 30° C. 5 min, relative to 0.1 mM caffeic acid alone): 1.4 times
Relative Inactivating Efficiency ([1]; 1.0 mM caffeic acid, 0.2 M NaCl, pH 4.0, relative to 0.1 mM caffeic acid alone): 0.007 times
Relative Inactivating Efficiency ([1]; 1 mM caffeic acid, 0.2 M arginine, pH 4.0, 30° C. 5 min, relative to 0.1 mM caffeic acid alone): 7.8 times

O=C1O[C@H]([C@@H](O)CO)C(=O)C1=O [Dehydroascorbic acid, dehydroascorbic acid]
remaining viral titer, % of the viral amount before inactivation ([1]; 0.1 mM dehydroascorbic acid alone, pH 4.0, 30° C. 5 min): 7.3%
Relative Inactivating Efficiency ([1]; 0.1 mM dehydroascorbic acid, 0 M arginine, pH 4.0, relative to 0.1 mM compound alone): 1 times
Relative Inactivating Efficiency ([1]; 0.1 mM dehydroascorbic acid, 0.2 M arginine, pH 4.0, relative to 0.1 mM compound alone): 248 times
Relative Inactivating Efficiency ([1]; 1 mM dehydroascorbic acid, 0 M arginine, pH 4.0, relative to 0.1 mM compound alone): 1 times
Relative Inactivating Efficiency ([1]; 1 mM dehydroascorbic acid, 0.2 M arginine, pH 4.0, relative to 0.1 mM compound alone): 1440 times
Relative Inactivating Efficiency ([1]; 10 mM dehydroascorbic acid, 0 M arginine, pH 4.0, relative to 0.1 mM compound alone): 1 times
Relative Inactivating Efficiency ([1]; 10 mM dehydroascorbic acid, 0.2 M arginine, pH 4.0, relative to 0.1 mM compound alone): >7200 times
Relative Inactivating Efficiency ([1]; 10 mM dehydroascorbic acid, 0.2 M arginine, pH 4.0, relative to 0.1 mM compound alone, listed as dehydroascorbic acid): more than 7200 times

(−)epigallocatechin gallate
remaining viral titer, % of the viral amount before inactivation [1, 3]: 0.02%
Relative Inactivating Efficiency [1, 4]: 1 times
Relative Inactivating Efficiency [1, 5]: 12 times
Relative Inactivating Efficiency [1, 6]: 268 times

O=C(O[C@@H]1Cc2c(O)cc(O)cc2O[C@@H]1c1ccc(O)c(O)c1)c1cc(O)c(O)c(O)c1 [(−)epicatechin gallate]
remaining viral titer, % of the viral amount before inactivation [1, 3]: 0.04%
Relative Inactivating Efficiency [1, 4]: 1 times
Relative Inactivating Efficiency [1, 5]: 59 times
Relative Inactivating Efficiency [1, 6]: 27 times

[Cl-].[Na+] [NaCl, reference compound]
Relative Inactivating Efficiency ([1]; pH 4): 0.011 times

O=C(/C=C/c1ccc(O)c(O)c1)OCCc1ccccc1 [Caffeic acid phenethyl ester, caffeic acid phenethyl ester]
remaining viral titer, % of that obtained before inactivation ([1]; 0.01 mM caffeic acid phenethyl ester alone, pH 4.0, 30° C. 5 min): 0.3%
Relative Inactivating Efficiency ([1]; 0.01 mM caffeic acid phenethyl ester, 0 M arginine, pH 4.0, relative to 0.01 mM compound alone): 1 times
Relative Inactivating Efficiency ([1]; 0.01 mM caffeic acid phenethyl ester, 0.2 M arginine, pH 4.0, relative to 0.01 mM compound alone): 8 times
Relative Inactivating Efficiency ([1]; 0.05 mM caffeic acid phenethyl ester, 0 M arginine, pH 4.0, relative to 0.01 mM compound alone): 1 times
Relative Inactivating Efficiency ([1]; 0.05 mM caffeic acid phenethyl ester, 0.2 M arginine, pH 4.0, relative to 0.01 mM compound alone): 122 times
Relative Inactivating Efficiency ([1]; 0.1 mM caffeic acid phenethyl ester, 0 M arginine, pH 4.0, relative to 0.01 mM compound alone): 1 times
Relative Inactivating Efficiency ([1]; 0.1 mM caffeic acid phenethyl ester, 0.2 M arginine, pH 4.0, relative to 0.01 mM compound alone): >243 times
Relative Inactivating Efficiency ([1]; 0.1 mM caffeic acid phenethyl ester, 0.2 M arginine, pH 4.0, relative to 0.01 mM compound alone, listed as caffeic acid phenethyl ester): more than 243 times

N=C(N)NCCC[C@H](N)C(=O)O [Arginine, arginine]
Relative Inactivating Efficiency ([1]; 0% CAE, 0.058 M arginine alone, pH 4.0, 10 mM sodium citrate, relative to 0.005% CAE alone): 0.03 times
Relative Inactivating Efficiency ([1]; pH 4): 1075 times

cocoyl arginine ethyl ester [CAE]
viral titer after inactivation, % of that before inactivation ([1]; 0.005% CAE alone, pH 4.0, 30° C. 5 min): 0.4%
Relative Inactivating Efficiency ([1]; 0.005% CAE, 0 M arginine, pH 4.0, 10 mM sodium citrate, relative to 0.005% CAE alone): 1 times
Relative Inactivating Efficiency ([1]; 0.005% CAE, 0.058 M arginine, pH 4.0, relative to 0.005% CAE alone): 1.13 times
Relative Inactivating Efficiency ([1]; 0.005% CAE, 0.115 M arginine, pH 4.0, relative to 0.005% CAE alone): 20 times
viral titer after inactivation, % of that before inactivation ([2]; 0.01% CAE alone, pH 4.8, 30° C. 5 min): 3.1%
Relative Inactivating Efficiency ([2]; 0.01% CAE, 0 M arginine, pH 4.8, 10 mM sodium citrate): 1 Times
Relative Inactivating Efficiency ([2]; 0.01% CAE, 0.115 M arginine, pH 4.8): 82 Times
Relative Inactivating Efficiency ([2]; 0.02% CAE, 0.115 M arginine, pH 4.8): 63 Times
